Data as given in ChEMBL document CHEMBL4673296 (J Med Chem, 2020).

What was measured:
[1] = test system: MDA-MB-468; test: Induction of apoptosis in human MDA-MB-468 cells assessed as early apoptotic cells at 10 uM measured after 18 hrs in normal growth media by AnnexinV/7-AAD staining based flow cytometric analysis (reference value: 5.6%); assay type: functional
[2] = Cmax in C57BL/6J mouse at 30 mg/kg, po measured upto 24 hrs by LC-MS/MS analysis; assay type: ADME, organism-based; set-up: route oral, dose 30 mg/kg, time <=24; conditions: in vivo
[3] = test system: MDA-MB-468; test: Induction of apoptosis in human MDA-MB-468 cells assessed as necrotic cells at 10 uM measured after 18 hrs in normal growth media by AnnexinV/7-AAD staining based flow cytometric analysis (reference value: 0.2%); assay type: functional

In the case of `COc1ccc(Nc2ncc(C(F)(F)F)c(NC3CC3)n2)cc1OC`, the Activity [1] is reported as 28.9%, the Cmax [2] is reported as 990 nM and the Activity [3] is reported as 0.2%.
